Reference: ChEMBL document CHEMBL3244209, “Tripeptide analogues of melanocyte-stimulating hormone release-inhibiting hormone (Pro-Leu-Gly-NH2) as inhibitors of oxotremorine-induced tremor” (1979)
The source made the active and inactive calls. The rule behind the calls is not given here. Square brackets hold non-standard residues; d marks the D form. Peptide text beside a SMILES is read from it. * marks the point of attachment. pGlu = O=C1CC[C@@H](C(=O)O)N1; NHtBu = CC(C)(C)N*; NHiPr = CC(C)N*; NHPr = CCCN*; For = O=C*

System: Mus musculus
Experiment: Inhibition of oxotremorine-induced tremor in ip dosed NMRI mouse administered 1 hr prior to oxotremorine challenge
Assay type: functional

| SMILES | Activity |
| --- | --- |
| CC(C)C[C@H](NC(=O)[C@@H]1CCC(=O)N1)C(=O)NCC(=O)N(C)C ([pGlu]-Leu-Gly-NMe2) | 1.3 mg/kg |
| CCCNC(=O)CNC(=O)[C@H](CC(C)C)NC(=O)[C@@H]1CCC(=O)N1 ([pGlu]-Leu-Gly-NHPr) | 10 mg/kg |
| CC(C)C[C@H](NC(=O)[C@@H]1CCC(=O)N1)C(=O)NCC(=O)NC(C)C ([pGlu]-Leu-Gly-NHiPr) | 2.9 mg/kg |
| CC(C)C[C@H](NC(=O)[C@@H]1CCCN1)C(=O)NCC(N)=O (H-Pro-Leu-Gly-NH2) | 3.6 mg/kg |
| CCNC(=O)CNC(=O)[C@H](CC(C)C)NC(=O)[C@@H]1CCC(=O)N1 ([pGlu]-Leu-Gly-NHEt) | 7.8 mg/kg |

System: Mus musculus
Experiment: Inhibition of oxotremorine-induced tremor in NMRI mouse at 0.13 to 16 mg/kg, ip administered 1 hr prior to oxotremorine challenge
Assay type: functional, organism-based

| SMILES | inhibition |
| --- | --- |
| CC(C)C[C@H](NC(=O)C1CCCC1)C(=O)NCC(N)=O | inactive |
| CC(C)C[C@H](NC(=O)[C@@H]1CCC(=O)N1)C(=O)NCC(=O)NC(C)(C)C ([pGlu]-Leu-Gly-NHtBu) | inactive |
| CCNC(=O)CNC(=O)[C@H](CC(C)C)NC(=O)[C@@H]1CCCN1C=O (For-Pro-Leu-Gly-NHEt) | inactive |
| CNC(=O)CNC(=O)[C@H](CC(C)C)NC(=O)[C@@H]1CCC(=O)N1 ([pGlu]-Leu-Gly-NHMe) | inactive |
| CC(C)C[C@H](NC(=O)[C@@H]1CCCN1C=O)C(=O)NCC(N)=O (For-Pro-Leu-Gly-NH2) | inactive |
| N=C(N)NCCC[C@H](NC(=O)[C@@H]1CCCN1)C(=O)NCC(N)=O (H-Pro-Arg-Gly-NH2) | inactive |
| CCN(C)C(=O)CNC(=O)[C@H](CC(C)C)NC(=O)[C@@H]1CCC(=O)N1 | inactive |
| CCNC(=O)CNC(=O)[C@H](CC(C)C)NC(=O)C1CCCC1 | inactive |
| C#CCNC(=O)CNC(=O)[C@H](CC(C)C)NC(=O)[C@@H]1CCC(=O)N1 | inactive |
| NCCCC[C@H](NC(=O)[C@@H]1CCCN1)C(=O)NCC(N)=O (H-Pro-Lys-Gly-NH2) | inactive |
| CC(C)C[C@@H]1NC(=O)[C@@H]2CCCN2C1=O | inactive |
